Laboratory results reported in patent US9914730B2, “Azaquinazoline inhibitors of Atypical protein Kinase C” (Ignyta, Inc., priority 2012, dated 2018).

biological target: T1, full-length human PKCι (Homo sapiens, UniProt P41743); experiment: PKCι IC50 IMAP assay, full-length PKCι at 150 μM ATP; format: biochemical; details: read-out: IC50 in IMAP assay against full length PKCi at 150 μM ATP
T1 construct: Recombinant, full-length human PKCι expressed in Sf21 insect cells is also commercially available; purchased; host or cells: Sf21 insect cells
T1 sequence (P41743 1-596): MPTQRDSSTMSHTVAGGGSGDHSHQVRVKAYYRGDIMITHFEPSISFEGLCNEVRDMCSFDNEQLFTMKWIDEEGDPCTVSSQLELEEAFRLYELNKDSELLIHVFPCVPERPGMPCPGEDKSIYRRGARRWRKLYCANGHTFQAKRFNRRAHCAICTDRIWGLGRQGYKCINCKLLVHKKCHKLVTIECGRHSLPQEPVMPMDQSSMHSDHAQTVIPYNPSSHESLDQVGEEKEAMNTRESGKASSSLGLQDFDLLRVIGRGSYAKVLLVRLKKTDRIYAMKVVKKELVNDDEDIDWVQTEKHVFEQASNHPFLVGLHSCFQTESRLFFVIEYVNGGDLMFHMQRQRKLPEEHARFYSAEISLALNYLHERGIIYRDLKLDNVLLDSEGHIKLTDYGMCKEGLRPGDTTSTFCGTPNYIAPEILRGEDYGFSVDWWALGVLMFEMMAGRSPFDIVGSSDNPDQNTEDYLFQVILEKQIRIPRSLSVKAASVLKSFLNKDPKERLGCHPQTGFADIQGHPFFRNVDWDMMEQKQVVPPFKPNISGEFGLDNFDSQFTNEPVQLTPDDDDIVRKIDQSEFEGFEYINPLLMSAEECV
Procedure, shortened: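 Dose-response IC50 values come from IMAP fluorescence polarisation after 60 min room-temperature turnover of 100 nM FAM peptide by ~15 pM insect-cell-expressed full-length PKCι at 150 μM ATP (5× KM^APP), normalised to no-compound and no-enzyme controls.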

| Compound | IC50 [nM] |
| --- | --- |
| c1ccc(C2(c3cc4c(-c5nc(N6CCNCC6)c6c(C7CC7)cncc6n5)ccnc4[nH]3)CCC2)cc1 [Example 2064, 5-Cyclopropyl-2-[2-(1-phenyl-cyclobutyl)-1H-pyrrolo[2,3-b]pyridin-4-yl]-4-piperazin-1-yl-pyrido[3,4-d]pyrimidine] | < 100 |
| O=C(Nc1cc(-c2nc(N3CCNCC3)c3c(C4CC4)cncc3n2)ccn1)C1CC1 [Example 584, Cyclopropane-carboxylic acid [4-(5-cyclopropyl-4-piperazin-1-yl-pyrido[3,4-d]pyrimidin-2-yl)-pyridin-2-yl]-amide] | < 100 |
| COc1cncc2nc(-c3ccnc(Nc4ccccc4F)c3)nc(N[C@@H]3CCNC3)c12 [Example 228, {2-[2-(2-Fluoro-phenylamino)-pyridin-4-yl]-5-methoxy-pyrido[3,4-d]pyrimidin-4-yl}-(R)-pyrrolidin-3-yl-amine] | < 100 |
| c1cc(Nc2cc(-c3nc(N4CCCC4)c4c(C5CC5)cncc4n3)ccn2)cc(N2CCNCC2)c1 [Example 766, [4-(5-Cyclopropyl-4-pyrrolidin-1-yl-pyrido[3,4-d]pyrimidin-2-yl)-pyridin-2-yl]-(3-piperazin-1-yl-phenyl)-amine] | 100 to 1000 |
| NC(=O)c1ccc(Nc2cc(-c3nc(N4CCNCC4)c4c(C5CC5)cncc4n3)ccn2)cc1 [Example 742, 4-[4-(5-Cyclopropyl-4-piperazin-1-yl-pyrido[3,4-d]pyrimidin-2-yl)-pyridin-2-ylamino]-benzamide] | < 100 |
| N-[(2S)-2-amino- 3-phenylpropyl]- 8-(furan-3-yl)-2- (pyridin-4-yl)- pyrido[3,4-d]- pyrimidin-4- amine [Example 113] | 100 to 1000 |
| COc1cncc2nc(-c3ccnc(Nc4ccccc4)c3)nc(N3CCN[C@@H](CCO)C3)c12 [Example 225, 2-{(S)-4-[5-Methoxy-2-(2-phenylamino-pyridin-4-yl)-pyrido[3,4-d]pyrimidin-4-yl]-piperazin-2-yl}-ethanol] | 100 to 1000 |
| C[C@H]1CN(c2nc(-c3ccnc(Nc4nc(F)cc(F)c4F)c3)nc3cncc(C4CC4)c23)CCN1 [Example 2004, {4-[5-Cyclopropyl-4-((S)-3-methyl-piperazin-1-yl)-pyrido[3,4-d]pyrimidin-2-yl]-pyridin-2-yl}-(3,4,6-trifluoro-pyridin-2-yl)-amine] | < 100 |
| c1ccc(C2CN(c3nc(-c4ccncc4)nc4cnccc34)CCN2)cc1 (stereo not drawn) [Example 69, 3-phenyl-1-[2-(pyridin-4-yl)-pyrido[3,4-d]-pyrimidin-4-yl]-piperazine] | 10000 to 40000 |
| CC(C)(C)c1cc2c(-c3nc(N4CCNCC4)c4c(C5CCC5)cncc4n3)ccnc2[nH]1 [Example 2010, 2-(2-tert-Butyl-1H-pyrrolo[2,3-b]pyridin-4-yl)-5-cyclobutyl-4-piperazin-1-yl-pyrido[3,4-d]pyrimidine] | < 100 |
| Cn1ccc(Nc2cc(-c3nc(N4CCNC(C)(C)C4)c4c(C5CC5)cncc4n3)ccn2)n1 [Example 832, {4-[5-Cyclopropyl-4-(3,3-dimethyl-piperazin-1-yl)-pyrido[3,4-d]pyrimidin-2-yl]-pyridin-2-yl}-(1-methyl-1H-pyrazol-3-yl)-amine] | < 100 |
| CN(c1nc(-c2ccnc(Nc3ncc(F)cc3F)c2)nc2cncc(C3CC3)c12)C1CCOCC1 [Example 2172, {5-Cyclopropyl-2-[2-(3,5-difluoro-pyridin-2-ylamino)-pyridin-4-yl]-pyrido[3,4-d]pyrimidin-4-yl}-methyl-(tetrahydro-pyran-4-yl)-amine] | 1000 to 10000 |
| O=C(NCCN1CCCC1)C1CCN(c2nc(-c3ccnc(Nc4c(F)cccc4F)c3)nc3cncc(C4CC4)c23)CC1 [Example 668, 1-{5-Cyclopropyl-2-[2-(2,6-difluoro-phenylamino)-pyridin-4-yl]-pyrido[3,4-d]pyrimidin-4-yl}-piperidine-4-carboxylic acid (2-pyrrolidin-1-yl-ethyl)-amide] | < 100 |
| Fc1cc(F)c(Nc2cc(-c3nc(NC4CCNCC4)c4c(C5CC5)cncc4n3)ccn2)nc1F [Example 2065, {5-Cyclopropyl-2-[2-(3,5,6-trifluoro-pyridin-2-ylamino)-pyridin-4-yl]-pyrido[3,4-d]pyrimidin-4-yl}-piperidin-4-yl-amine] | < 100 |
| c1cc(-c2nc(N[C@@H]3CCNC3)c3ccncc3n2)ccn1 [Example 7, (3R)-N-[2-(pyridin-4-yl)pyrido[3,4-d]-pyrimidin-4-yl]-pyrrolidin-3-amine] | < 100 |
| Cn1cc(CNc2cc(-c3nc(N4CCNCC4)c4c(C5CC5)cncc4n3)ccn2)cn1 [Example 758, [4-(5-Cyclopropyl-4-piperazin-1-yl-pyrido[3,4-d]pyrimidin-2-yl)-pyridin-2-yl]-(1-methyl-1H-pyrazol-4-ylmethyl)-amine] | < 100 |
| N#Cc1ccnc(Nc2cc(-c3nc(N4CC[C@@H](O)[C@@H](O)C4)c4c(C5CC5)cncc4n3)ccn2)c1 (stereo in doubt) [Example 488, 2-{4-[5-Cyclopropyl-4-((3S,4R)-3,4-dihydroxy-piperidin-1-yl)-pyrido[3,4-d]pyrimidin-2-yl]-pyridin-2-ylamino}-isonicotinonitrile] | 100 to 1000 |
| FC(F)(F)Cn1ccc(Nc2cc(-c3nc(N4CCNCC4)c4c(C5CC5)cncc4n3)ccn2)n1 [Example 2016, [4-(5-Cyclopropyl-4-piperazin-1-yl-pyrido[3,4-d]pyrimidin-2-yl)-pyridin-2-yl]-[1-(2,2,2-trifluoro-ethyl)-1H-pyrazol-3-yl]-amine] | < 100 |
| C[C@H]1CN(c2nc(-c3ccnc(Nc4nc(F)ccc4F)c3)nc3cncc(C4CCC4)c23)CCN1 [Example 798, {4-[5-Cyclobutyl-4-((S)-3-methyl-piperazin-1-yl)-pyrido[3,4-d]pyrimidin-2-yl]-pyridin-2-yl}-(3,6-difluoro-pyridin-2-yl)-amine] | < 100 |
| Cc1ccnc(Nc2cc(-c3nc(N[C@@H]4CCNC4)c4ccncc4n3)ccn2)c1 [Example 338, {2-[2-(4-Methyl-pyridin-2-ylamino)-pyridin-4-yl]-pyrido[3,4-d]pyrimidin-4-yl}-(R)-pyrrolidin-3-yl-amine] | 1000 to 10000 |
| Fc1cc(F)c(F)c(Nc2cc(-c3nc(NC4CCNC4)c4c(C5CC5)cncc4n3)ccn2)n1 (stereo not drawn) [Example 2021, {5-Cyclopropyl-2-[2-(3,4,6-trifluoro-pyridin-2-ylamino)-pyridin-4-yl]-pyrido[3,4-d]pyrimidin-4-yl}-pyrrolidin-3-yl-amine] | < 100 |
| FC1CCC(Nc2cc(-c3nc(N4CCNCC4)c4c(C5CC5)cncc4n3)ccn2)CC1 (stereo not drawn) [Example 601, [4-(5-Cyclopropyl-4-piperazin-1-yl-pyrido[3,4-d]pyrimidin-2-yl)-pyridin-2-yl]-(4-fluorocyclohexyl)-amine] | < 100 |
| COCc1cc2c(-c3nc(N4CCNCC4)c4c(C5CC5)cncc4n3)ccnc2[nH]1 [Example 2075, 5-Cyclopropyl-2-(2-methoxymethyl-1H-pyrrolo[2,3-b]pyridin-4-yl)-4-piperazin-1-yl-pyrido[3,4-d]pyrimidine] | < 100 |
| COc1cncc2nc(-c3ccncc3)nc(N3CCOCC3)c12 [Example 70, 4-[5-methoxy-2-(pyridin-4-yl)-pyrido[3,4-d]-pyrimidin-4-yl]-morpholine] | 1000 to 10000 |
